Peptide text beside a SMILES is read from it.

The text below walks through data of ChEMBL document CHEMBL3297736, “Rational improvement of the affinity and selectivity of integrin binding of grafted lasso peptides” (J Med Chem, 2014).

The target of test [1] is T1, Integrin alpha-V/beta-3 (Homo sapiens, UniProt P05106+P06756). As to the kind of experiment: Inhibition of vitronectin binding to human alphaVbeta3 integrin after 2 hrs by ELISA. The test is classed as protein-complex assay. A general note: ELISA stands for enzyme-linked immunosorbent assay.
Target sequence in this assay (P05106 27-788 limits assumed): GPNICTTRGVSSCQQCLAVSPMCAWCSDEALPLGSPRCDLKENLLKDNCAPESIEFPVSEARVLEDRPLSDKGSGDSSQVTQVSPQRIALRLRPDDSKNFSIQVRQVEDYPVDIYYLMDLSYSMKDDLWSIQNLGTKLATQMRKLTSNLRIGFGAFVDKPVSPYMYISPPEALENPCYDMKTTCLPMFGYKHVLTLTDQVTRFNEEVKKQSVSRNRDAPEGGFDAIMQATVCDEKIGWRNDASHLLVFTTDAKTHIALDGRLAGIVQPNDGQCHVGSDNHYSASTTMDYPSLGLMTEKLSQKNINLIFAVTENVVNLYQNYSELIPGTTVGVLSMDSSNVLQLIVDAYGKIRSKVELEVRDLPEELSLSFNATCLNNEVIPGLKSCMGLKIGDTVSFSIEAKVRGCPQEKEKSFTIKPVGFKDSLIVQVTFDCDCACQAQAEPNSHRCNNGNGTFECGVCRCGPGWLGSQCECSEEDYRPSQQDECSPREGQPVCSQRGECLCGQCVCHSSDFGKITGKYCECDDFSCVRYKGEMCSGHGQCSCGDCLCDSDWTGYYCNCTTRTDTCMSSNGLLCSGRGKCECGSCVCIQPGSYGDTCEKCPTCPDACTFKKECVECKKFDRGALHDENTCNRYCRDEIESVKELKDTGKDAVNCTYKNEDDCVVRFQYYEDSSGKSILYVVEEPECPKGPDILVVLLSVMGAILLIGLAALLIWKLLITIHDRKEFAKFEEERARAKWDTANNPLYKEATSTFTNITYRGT
Target sequence in this assay (P06756 31-889 limits assumed): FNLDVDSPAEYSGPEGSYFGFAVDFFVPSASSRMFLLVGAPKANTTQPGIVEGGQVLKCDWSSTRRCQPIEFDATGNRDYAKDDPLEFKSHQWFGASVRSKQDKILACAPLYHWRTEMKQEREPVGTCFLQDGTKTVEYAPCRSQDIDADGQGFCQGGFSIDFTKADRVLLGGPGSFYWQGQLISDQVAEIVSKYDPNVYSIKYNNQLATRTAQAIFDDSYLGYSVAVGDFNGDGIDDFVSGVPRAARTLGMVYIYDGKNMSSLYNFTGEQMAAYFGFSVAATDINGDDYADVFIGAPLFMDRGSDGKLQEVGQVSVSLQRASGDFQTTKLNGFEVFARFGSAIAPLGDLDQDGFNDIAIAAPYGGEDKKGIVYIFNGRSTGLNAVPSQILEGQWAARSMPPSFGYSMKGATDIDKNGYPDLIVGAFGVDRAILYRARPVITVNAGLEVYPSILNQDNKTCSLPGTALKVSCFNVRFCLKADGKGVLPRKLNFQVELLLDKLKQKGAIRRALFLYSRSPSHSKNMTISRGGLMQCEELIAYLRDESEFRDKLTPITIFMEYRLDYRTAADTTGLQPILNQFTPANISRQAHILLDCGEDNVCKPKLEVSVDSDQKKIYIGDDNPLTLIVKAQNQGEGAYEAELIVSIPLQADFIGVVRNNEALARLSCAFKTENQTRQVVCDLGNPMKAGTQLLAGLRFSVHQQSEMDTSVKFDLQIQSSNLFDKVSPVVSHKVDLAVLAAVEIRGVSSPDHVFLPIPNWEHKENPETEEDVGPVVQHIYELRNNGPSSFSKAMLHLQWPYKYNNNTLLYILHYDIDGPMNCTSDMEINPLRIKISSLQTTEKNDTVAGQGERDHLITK
Target sequence in this assay (P06756 891-1048 limits assumed): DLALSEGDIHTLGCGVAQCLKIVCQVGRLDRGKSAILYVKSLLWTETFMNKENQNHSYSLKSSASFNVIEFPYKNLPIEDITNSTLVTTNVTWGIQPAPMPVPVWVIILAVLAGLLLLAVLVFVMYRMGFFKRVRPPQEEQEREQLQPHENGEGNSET
For test [2], the target named is Integrin alpha-IIb/beta-3 (Homo sapiens, UniProt P05106+P08514). The test is described as follows: Inhibition of fibrinogen binding to human alpha2b/beta3 integrin after 1 hr by ELISA. The test is classed as protein-complex assay.
Sequence of Integrin alpha-IIb/beta-3 (P05106 27-788 limits assumed): as the sequence (P05106 27-788 limits assumed) above
Sequence of Integrin alpha-IIb/beta-3 (P08514 32-887 limits assumed): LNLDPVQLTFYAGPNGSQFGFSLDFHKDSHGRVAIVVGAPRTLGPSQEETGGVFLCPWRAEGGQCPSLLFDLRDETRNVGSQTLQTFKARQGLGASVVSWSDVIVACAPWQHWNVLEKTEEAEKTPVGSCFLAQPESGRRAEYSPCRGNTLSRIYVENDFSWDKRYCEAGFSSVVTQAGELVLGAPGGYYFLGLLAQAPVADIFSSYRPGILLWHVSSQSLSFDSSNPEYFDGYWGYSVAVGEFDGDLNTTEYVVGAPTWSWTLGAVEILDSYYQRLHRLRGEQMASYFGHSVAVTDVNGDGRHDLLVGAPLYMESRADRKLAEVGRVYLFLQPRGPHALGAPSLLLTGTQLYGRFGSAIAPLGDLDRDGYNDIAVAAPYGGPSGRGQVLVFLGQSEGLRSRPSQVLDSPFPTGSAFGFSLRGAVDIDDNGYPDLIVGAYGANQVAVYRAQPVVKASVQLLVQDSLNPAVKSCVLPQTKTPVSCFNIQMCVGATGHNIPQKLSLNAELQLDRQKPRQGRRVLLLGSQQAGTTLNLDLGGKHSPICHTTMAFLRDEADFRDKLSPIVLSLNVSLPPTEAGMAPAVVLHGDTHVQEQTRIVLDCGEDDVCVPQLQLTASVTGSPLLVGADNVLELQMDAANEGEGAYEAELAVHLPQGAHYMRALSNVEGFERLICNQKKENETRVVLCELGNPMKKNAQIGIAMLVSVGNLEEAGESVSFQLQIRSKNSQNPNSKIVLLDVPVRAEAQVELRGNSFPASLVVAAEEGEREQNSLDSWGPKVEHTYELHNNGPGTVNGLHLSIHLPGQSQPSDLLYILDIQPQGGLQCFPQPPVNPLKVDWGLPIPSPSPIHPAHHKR
Sequence of Integrin alpha-IIb/beta-3 (P08514 891-1039 limits assumed): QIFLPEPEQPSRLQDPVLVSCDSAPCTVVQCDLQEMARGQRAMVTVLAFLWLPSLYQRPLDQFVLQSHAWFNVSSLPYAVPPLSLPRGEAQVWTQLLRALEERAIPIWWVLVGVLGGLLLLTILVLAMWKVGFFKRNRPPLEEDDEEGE
A further test has as its target Integrin alpha-V/beta-5 (Homo sapiens, UniProt P06756+P18084). As to the kind of experiment: Inhibition of vitronectin binding to human alphaVbeta5 integrin after 1 hr by ELISA. Type of test: protein-complex assay.
Test [3] has as its target T1, Integrin alpha-V/beta-3. As to the kind of experiment: Inhibition of alphavbeta3 integrin-mediated cell adhesion in HUVEC after 15 mins by matrigel assay. Type of test: protein-complex assay.
For test [4], the target named is T1, Integrin alpha-V/beta-3. As to the kind of experiment: Inhibition of alphavbeta3 integrin-mediated capillary tube formation in HUVEC after 16 hrs by matrigel assay. Type of test: protein-complex assay.
The next test has as its target Integrin alpha-5/beta-1 (Homo sapiens, UniProt P05556+P08648). The test is described as follows: Inhibition of fibronectin binding to human alpha5beta1 integrin after 1 hr by ELISA. Type of test: protein-complex assay.
The species named for a further test is Homo sapiens. As to the kind of experiment: Selectivity ratio IC50 for human alpha2b/beta3 integrin to IC50 for human alphaVbeta3 integrin.

Sequence of Integrin alpha-V/beta-5 (P06756 31-889 limits assumed): as the sequence (P06756 31-889 limits assumed) above
Sequence of Integrin alpha-V/beta-5 (P06756 891-1048 limits assumed): as the sequence (P06756 891-1048 limits assumed) above
Sequence of Integrin alpha-V/beta-5 (P18084 24-799 limits assumed): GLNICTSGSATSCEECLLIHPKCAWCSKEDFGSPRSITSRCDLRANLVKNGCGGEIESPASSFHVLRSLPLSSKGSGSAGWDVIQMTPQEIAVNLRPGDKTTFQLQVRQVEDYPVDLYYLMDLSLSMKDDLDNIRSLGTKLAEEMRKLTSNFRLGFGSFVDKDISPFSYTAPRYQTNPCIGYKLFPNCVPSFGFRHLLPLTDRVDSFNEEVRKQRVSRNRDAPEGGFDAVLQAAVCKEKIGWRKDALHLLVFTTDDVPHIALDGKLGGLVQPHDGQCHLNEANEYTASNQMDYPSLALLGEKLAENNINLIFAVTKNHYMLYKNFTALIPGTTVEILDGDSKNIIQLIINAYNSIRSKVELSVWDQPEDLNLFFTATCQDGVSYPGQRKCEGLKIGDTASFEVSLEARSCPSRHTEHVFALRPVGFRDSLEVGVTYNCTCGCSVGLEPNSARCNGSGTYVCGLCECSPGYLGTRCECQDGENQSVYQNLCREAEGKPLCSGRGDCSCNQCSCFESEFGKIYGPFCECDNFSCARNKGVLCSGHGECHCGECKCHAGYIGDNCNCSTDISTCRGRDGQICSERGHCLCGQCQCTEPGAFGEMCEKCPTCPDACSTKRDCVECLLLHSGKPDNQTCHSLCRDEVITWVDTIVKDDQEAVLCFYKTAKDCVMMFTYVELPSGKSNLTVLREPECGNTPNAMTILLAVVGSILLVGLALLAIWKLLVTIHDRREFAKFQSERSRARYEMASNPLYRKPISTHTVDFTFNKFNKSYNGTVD

As a reminder, the IC50 is the point on the concentration scale where inhibition reaches its midpoint. The low end stands for inhibition by little substance, the high end for a need for much substance. For the compound `N=C(N)NCCC[C@H](N)C(=O)NCC(=O)N[C@@H](CC(=O)O)C(=O)O`, the IC50 on Integrin alpha-V/beta-3 [1] stood at 12 µM; in test [2] it was 130 µM; at Integrin alpha-V/beta-5 it was 38 µM.

As to `NC(N)=NCCC[C@H](N)C(=O)NCC(=O)N[C@@H](CC(=O)O)C(=O)O`, the inhibition entry at Integrin alpha-V/beta-3 [3] and at Integrin alpha-V/beta-3 [4] was “Dose-dependent effect” throughout.

Turning to `N=C(N)NCCC[C@H](N)C(=O)NCC(=O)N[C@@H](CC(=O)O)C(=O)N[C@@H](Cc1ccccc1)C(=O)O` (H-RGDF-OH), the IC50 at Integrin alpha-V/beta-3 [1] came out at 4.1 µM; in test [2], 725 µM; on Integrin alpha-5/beta-1 it was 1550 µM; at Integrin alpha-V/beta-5, 92 µM. Besides, the inhibition result at Integrin alpha-V/beta-3 [3] and on Integrin alpha-V/beta-3 [4] was “Dose-dependent effect” each time. Further, the Ratio IC50 in the test filed under Homo sapiens stood at 177.
